BindingDB's records for doi:10.1016/j.bmcl.2003.11.082 (Cubist Pharmaceuticals, 2004)

Assays:
[1] = target: Phenylalanine--tRNA ligase (Staphylococcus aureus); assay: Compound was evaluated for the inhibitory activity against Staphylococcus aureus phenylalanyl-tRNA synthetase
[2] = target: Phenylalanine--tRNA ligase (Escherichia coli); assay: Compound was evaluated for the inhibitory activity against Escherichia coli phenylalanyl-tRNA synthetase

IC50 [1]: 33 µM
IC50 [2]: 11 µM
SMILES: O=C(Nc1ccc(Cl)c(Cl)c1)[C@H]1[C@@H](C(=O)O)C2(O[C@H]1c1ccccc1)C(=O)c1ccccc1C2=O [4-(3,4-dichlorophenylcarbamoyl)-1',3'-dioxo-5-phenylspiro[tetrahydrofuran-2,2'-(2',3'-dihydro-1'H-indene)]-3-carboxylic acid]
